Test results taken from ChEMBL document CHEMBL5226302, “Small-Molecule Inhibitors Targeting the Canonical WNT Signaling Pathway for the Treatment of Cancer” (J Med Chem, 2021).
Values after ≈ are worked out from the molar mass of the structure shown.

Legend:
[1] = molecular target: T1, Poly [ADP-ribose] polymerase tankyrase-1 (Homo sapiens, UniProt O95271); test: Inhibition of TNKS1 (unknown origin)
T1 sequence (O95271 whole entry): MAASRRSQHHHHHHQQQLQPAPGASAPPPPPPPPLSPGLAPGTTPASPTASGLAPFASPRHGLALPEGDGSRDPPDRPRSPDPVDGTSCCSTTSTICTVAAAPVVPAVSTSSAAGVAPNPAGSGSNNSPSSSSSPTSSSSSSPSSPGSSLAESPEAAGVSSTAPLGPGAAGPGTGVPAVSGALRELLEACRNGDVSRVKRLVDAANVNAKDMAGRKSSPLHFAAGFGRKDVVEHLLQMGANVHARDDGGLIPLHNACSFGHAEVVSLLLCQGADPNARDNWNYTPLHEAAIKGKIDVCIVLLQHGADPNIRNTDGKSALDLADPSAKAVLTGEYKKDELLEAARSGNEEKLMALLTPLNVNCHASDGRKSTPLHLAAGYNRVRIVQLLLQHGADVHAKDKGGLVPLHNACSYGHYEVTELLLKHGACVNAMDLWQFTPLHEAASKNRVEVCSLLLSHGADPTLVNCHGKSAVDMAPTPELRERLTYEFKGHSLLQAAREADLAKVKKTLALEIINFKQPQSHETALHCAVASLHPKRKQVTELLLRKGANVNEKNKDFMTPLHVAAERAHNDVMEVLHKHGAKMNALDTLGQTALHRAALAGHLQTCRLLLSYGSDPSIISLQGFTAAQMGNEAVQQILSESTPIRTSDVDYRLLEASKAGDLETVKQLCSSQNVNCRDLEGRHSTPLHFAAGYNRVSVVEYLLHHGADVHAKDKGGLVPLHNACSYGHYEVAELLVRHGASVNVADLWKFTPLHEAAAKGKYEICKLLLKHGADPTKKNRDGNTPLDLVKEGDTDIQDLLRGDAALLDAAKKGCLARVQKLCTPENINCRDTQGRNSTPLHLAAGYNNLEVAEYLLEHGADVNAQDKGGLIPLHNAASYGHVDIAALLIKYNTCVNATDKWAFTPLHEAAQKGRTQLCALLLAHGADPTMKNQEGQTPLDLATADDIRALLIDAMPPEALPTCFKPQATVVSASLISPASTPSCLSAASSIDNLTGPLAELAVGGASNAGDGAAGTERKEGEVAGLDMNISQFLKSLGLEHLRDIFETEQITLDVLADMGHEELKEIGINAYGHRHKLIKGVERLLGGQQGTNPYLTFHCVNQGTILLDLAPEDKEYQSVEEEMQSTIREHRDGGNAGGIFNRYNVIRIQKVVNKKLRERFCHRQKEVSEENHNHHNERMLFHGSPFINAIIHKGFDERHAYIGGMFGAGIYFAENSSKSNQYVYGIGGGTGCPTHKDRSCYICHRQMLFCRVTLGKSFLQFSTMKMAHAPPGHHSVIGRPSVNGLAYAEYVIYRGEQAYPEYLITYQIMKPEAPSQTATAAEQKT

[2] = molecular target: T1, Poly [ADP-ribose] polymerase tankyrase-1; test: Inhibition of human TNKS1 (1030 to 1317 residues) measured after 20 hrs
[3] = molecular target: T2, Poly [ADP-ribose] polymerase tankyrase-2 (Homo sapiens, UniProt Q9H2K2); test: Inhibition of human TNKS2 (873 to 1162 residues) measured after 15 hrs in presence of NAD+ by fluorescence assay
T2 sequence (Q9H2K2 whole entry): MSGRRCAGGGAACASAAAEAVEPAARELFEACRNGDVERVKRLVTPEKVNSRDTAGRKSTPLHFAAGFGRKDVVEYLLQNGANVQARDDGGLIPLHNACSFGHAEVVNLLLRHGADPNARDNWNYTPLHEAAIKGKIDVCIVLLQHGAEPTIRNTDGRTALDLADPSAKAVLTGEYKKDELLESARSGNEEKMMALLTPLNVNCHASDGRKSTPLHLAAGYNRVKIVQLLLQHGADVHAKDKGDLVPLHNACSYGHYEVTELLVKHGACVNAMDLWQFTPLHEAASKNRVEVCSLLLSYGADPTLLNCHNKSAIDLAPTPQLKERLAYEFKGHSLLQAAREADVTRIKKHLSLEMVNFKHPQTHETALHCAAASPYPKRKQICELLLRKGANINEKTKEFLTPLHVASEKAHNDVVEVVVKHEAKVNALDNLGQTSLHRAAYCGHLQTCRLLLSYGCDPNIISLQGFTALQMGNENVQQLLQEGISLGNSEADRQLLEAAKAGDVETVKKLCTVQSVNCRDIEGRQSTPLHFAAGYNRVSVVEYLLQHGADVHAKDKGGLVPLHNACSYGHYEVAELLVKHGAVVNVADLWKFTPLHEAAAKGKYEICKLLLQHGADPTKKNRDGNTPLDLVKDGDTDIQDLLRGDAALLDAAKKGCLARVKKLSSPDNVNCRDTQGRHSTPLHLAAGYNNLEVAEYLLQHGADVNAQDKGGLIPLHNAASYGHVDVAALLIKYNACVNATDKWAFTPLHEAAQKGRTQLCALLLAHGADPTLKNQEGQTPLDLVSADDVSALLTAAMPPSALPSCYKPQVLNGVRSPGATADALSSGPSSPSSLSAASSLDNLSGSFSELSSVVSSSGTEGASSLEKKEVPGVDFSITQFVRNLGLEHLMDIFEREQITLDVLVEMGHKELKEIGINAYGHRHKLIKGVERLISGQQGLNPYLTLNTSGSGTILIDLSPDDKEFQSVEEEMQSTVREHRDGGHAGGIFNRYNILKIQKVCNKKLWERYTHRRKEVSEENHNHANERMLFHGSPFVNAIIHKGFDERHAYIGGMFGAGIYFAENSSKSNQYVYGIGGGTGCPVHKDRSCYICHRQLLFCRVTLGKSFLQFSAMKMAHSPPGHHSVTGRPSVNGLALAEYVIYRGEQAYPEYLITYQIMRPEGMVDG

[4] = Solubility of compound at pH 7.4; format: physicochemical; details: buffer
[5] = Inhibition of TBC (unknown origin); parameters: species or system Homo sapiens
[6] = Half life of compound in PBS buffer; format: physicochemical
[7] = Solubility of the compound at pH 7.4; format: physicochemical; details: buffer
[8] = Oral bioavailability in mouse at 2.5 mg/kg; format: ADME, organism-based; details: in vivo
[9] = Inhibition of Wnt pathway (unknown origin); parameters: species or system Homo sapiens
[10] = Plasma concentration in mouse at 5 mg/kg, po measured after 24 hr; format: ADME, organism-based
[11] = Oral bioavailability in rat at 5 mg/kg; format: ADME, organism-based; details: in vivo
[12] = Oral bioavailability in mouse at 10 mg/kg; format: ADME, organism-based; details: in vivo
HEK293 = test: Antitumor activity against human HEK293 cells xenografted in […] assessed as tumor growth inhibition at 10 mg/kg relative to control; format: functional; details: read-out: TGI
[13] = molecular target: T2, Poly [ADP-ribose] polymerase tankyrase-2; test: Binding affinity to human TNKS2 ARC4 assessed as dissociation constant
MG-63 = test: Antitumor activity against human MG-63 cells xenografted in osteosarcoma mouse model assessed as tumor growth inhibition at 5 mg/kg relative to control; format: functional; details: read-out: TGI
[14] = molecular target: Catenin beta-1/Transcription factor 7 (Homo sapiens, UniProt P35222+P36402); test: Inhibition of beta catenin/TCF (unknown origin) by immunoprecipitation method; format: protein assay
[15] = molecular target: T2, Poly [ADP-ribose] polymerase tankyrase-2; test: Inhibition of TNKS2 (unknown origin)
[16] = Oral bioavailability in rat at 30 mg/kg; format: ADME, organism-based; details: in vivo
COLO 320 = test: Antitumor activity against human COLO 320 cells xenografted mouse model assessed as tumor growth inhibition at 300 mg/kg relative to control; format: functional; details: read-out: TGI
[17] = In vivo inhibition of WNT1 in mouse model assessed as reduction in tumor volume by measuring T/C ratio at 1 mg/kg; format: functional
[18] = In vivo inhibition of WNT1 in mouse model assessed as reduction in tumor volume by measuring T/C ratio at 3 mg/kg; format: functional

Chain of Catenin beta-1/Transcription factor 7 (P36402 whole entry): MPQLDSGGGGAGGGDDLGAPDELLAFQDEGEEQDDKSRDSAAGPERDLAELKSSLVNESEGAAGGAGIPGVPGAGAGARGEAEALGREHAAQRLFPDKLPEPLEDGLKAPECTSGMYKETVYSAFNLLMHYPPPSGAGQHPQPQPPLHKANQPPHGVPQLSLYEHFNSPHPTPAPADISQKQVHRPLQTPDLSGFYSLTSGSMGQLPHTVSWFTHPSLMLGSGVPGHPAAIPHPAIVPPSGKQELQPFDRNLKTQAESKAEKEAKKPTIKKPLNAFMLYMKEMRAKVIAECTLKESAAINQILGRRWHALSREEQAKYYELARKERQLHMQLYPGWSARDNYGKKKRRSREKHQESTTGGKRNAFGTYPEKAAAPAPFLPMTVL
Chain of Catenin beta-1/Transcription factor 7 (P35222 whole entry): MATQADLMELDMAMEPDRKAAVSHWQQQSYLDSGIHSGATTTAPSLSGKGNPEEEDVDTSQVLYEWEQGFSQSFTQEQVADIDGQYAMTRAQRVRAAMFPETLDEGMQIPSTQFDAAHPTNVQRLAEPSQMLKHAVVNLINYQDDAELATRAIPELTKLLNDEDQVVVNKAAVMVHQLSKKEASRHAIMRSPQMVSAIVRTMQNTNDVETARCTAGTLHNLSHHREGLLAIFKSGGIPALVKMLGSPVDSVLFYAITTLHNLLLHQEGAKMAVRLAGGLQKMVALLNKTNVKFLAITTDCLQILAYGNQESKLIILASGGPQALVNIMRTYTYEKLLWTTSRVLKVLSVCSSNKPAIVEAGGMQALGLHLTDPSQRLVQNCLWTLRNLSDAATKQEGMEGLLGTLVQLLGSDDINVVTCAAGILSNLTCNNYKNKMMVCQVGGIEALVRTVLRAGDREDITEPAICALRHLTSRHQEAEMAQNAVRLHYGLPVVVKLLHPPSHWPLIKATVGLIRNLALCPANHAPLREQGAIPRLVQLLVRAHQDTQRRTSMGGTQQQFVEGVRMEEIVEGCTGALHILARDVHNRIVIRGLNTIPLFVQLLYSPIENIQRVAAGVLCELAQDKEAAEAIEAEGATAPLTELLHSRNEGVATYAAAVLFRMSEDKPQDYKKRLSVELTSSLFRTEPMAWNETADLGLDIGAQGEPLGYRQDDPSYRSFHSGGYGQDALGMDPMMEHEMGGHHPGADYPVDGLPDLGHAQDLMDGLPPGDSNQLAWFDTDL

O=C(CCC1CCCC1)Nc1nnc2n1CCS2
IC50 [1]: 1900 nM

CN1CCCc2c1cc(-c1ccc(Br)cc1)[nH]c2=O
IC50 [2]: 423 nM | IC50 [3]: 6.1 nM

COc1ccccc1N1CCN(c2nc3c(c(=O)[nH]2)CCCC3)CC1
solubility [4]: 72 µg/mL (≈ 211 µM)

COc1ccccc1NC(=O)c1ccc(NC(=O)CCc2nc3ccccc3c(=O)[nH]2)cc1
IC50 [5]: 160 nM | half-life [6]: 0.667 h

O=C(COc1ccc(-n2ccnc2)cc1)Nc1ccc(-c2ccccc2)cc1
solubility [7]: < 1 µg/mL | bioavailability [8]: < 1%

Cc1cc(-c2ccc(CC(=O)Nc3ccc(-c4cccnc4)cc3)cc2)ccn1
IC50 [9]: 0.074 nM | concentration at 24 h [10]: 1 nM

COCCNc1cc(C)c(-c2ccc(-c3nc4c(CO)cccc4c(=O)[nH]3)cc2)cn1
bioavailability [11]: 18%

Cn1c(=O)c2c(ncn2CC(=O)Nc2ccc(-c3ccccc3)nn2)n(C)c1=O [ETC-159]
bioavailability [12]: 100% | inhibition in vivo at 10 mg/kg (HEK293): 94%

CN(C)c1ccc2c(-c3ccc(C(=O)NCCCCCC(=O)N[C@@H](CCCNC(=N)N)C(=O)N[C@@H](CCC(=O)O)C(=O)N[C@H]4CCn5cc(nn5)-c5cc(C(=O)O)cc(c5)C5=CN(CC[C@@H](C(=O)N[C@@H](CCC(=O)O)C(N)=O)NC(=O)CNC(=O)[C@H](CC(=O)O)NC(=O)CNC4=O)NN5)cc3C(=O)[O-])c3ccc(=[N+](C)C)cc-3oc2c1
Kd [13]: 440 nM

O=C(Nc1cccc2cccnc12)c1ccc(N2C(=O)[C@@H]3[C@H](C2=O)[C@@H]2C=C[C@H]3C2)cc1
inhibition in vivo at 5 mg/kg (MG-63): 71%

O=C(CN1CCCC2=C1C(=O)N(C1CC1)C2=O)Nc1ccc(-c2cccnc2)nn1
solubility [7]: 60 µg/mL (≈ 148 µM) | bioavailability [8]: 81%

O=C1[C@H](Cc2ccc(O)cc2)N2C(=O)CCN(C(=O)NCc3ccccc3)[C@H]2CN1Cc1cccc2ccccc12
IC50 [14]: 3000 nM

COc1ccc(C2(CNC(=O)c3ccc(NC(=O)c4ccco4)cc3)CCOCC2)cc1
IC50 [15]: 830 nM

O=c1[nH]c(N2CCC3(CC2)CN(CCO)c2cc(F)cc(F)c23)nc2c1CCCC2
bioavailability [16]: 60% | inhibition in vivo at 300 mg/kg (COLO 320): 52%

Cc1cc(-c2ncc(CC(=O)Nc3ccc(-c4cnccn4)cn3)cc2C)ccn1 [WNT-974]
IC50 [9]: 1 nM | inhibition in vivo at 1 mg/kg [17]: 47% | inhibition in vivo at 3 mg/kg [18]: 63%

CCCn1c(SCC(=O)Nc2nc3ccc(OC)cc3s2)nnc1-c1ccncc1
IC50 [9]: 12 nM

N#Cc1ccc(Oc2ccc(NC(=O)CCSc3nc4ccccc4c(=O)[nH]3)cc2)cc1
IC50 [5]: 1.9 nM | half-life [6]: 2.8 h
